In patent publication US20220017478A1, “2-BENZOYLAMINOBENZAMIDE DERIVATIVES AS BCL-3 INHIBITORS” (University College Cardiff Consultants Limited, priority 2013, published 2022):
Like-named read-outs stand apart in the source and are kept apart here.

Tests used:
[1] = system: MDA-MB-231 cells; test: Cell Titre Blue viability assay, MDA-MB-231; conditions: Homo sapiens, MDA-MB-231, 24 h, read-out: IC50 cell viability, extrapolated from the dose-response curve
Description: (§1) The viability of cells at experimental endpoints for particular assays was determined using the Cell Titre Blue reagent (Promega, Southampton, UK). This reagent measures the cellular metabolic activity using resazurin as an indicator dye. Viable cells, therefore metabolically active, will reduce resazurin into highly fluorescent resofurin. The resulting fluorescence levels are measured and indicate cell viability.
(§2) Cells were plated at low confluency into 96 well plates in 100 μl of complete growth media in triplicates and were incubated at 37° C. in 5% CO2 for the desired test exposure period. For each 100 μl of media in 96 well plates, 20 μl Cell Titre Blue reagent was added followed by incubation for an hour at 37° C. in 5% CO2. Fluorescence was then measured by setting excitation/emission wavelengths to 560/590 nm on a Flurostar Optima plate reader (BMG tabtech, Bucks, UK).
(§3) Cell toxicity was evaluated using the Cell Titre Blue viability assay over a range of molarities for 24 hrs.
Selected compounds were dissolved in DMSO and diluted to a highest concentration of 10 μM (0.1% DMSO). In all assays, a DMSO control was always used. Selected compounds were tested for cell toxicity in HEK-293 and MDA-MB-231 cells before being used in cell-based assays. Cell toxicity was evaluated using the Cell Titre Blue viability assay over a range of molarities for 24 hrs

[2] = Cell Titre Blue viability assay, MCF-10A; format: cell-based, human; conditions: human, MCF-10A cells, 1 mM, read-out: cell viability compared to DMSO control (100%)
Description: as §1, §2
(§4) To compare the toxicity in tumorigenic as well as in non-tumorigenic breast cancer cells, we selected MCF-10A as a non-tumorigenic human breast cancer cell line and MDA-MB-231 and SKBR3 as cell models of tumorigenic human breast cancer cell line.
as §3

[3] = system: MCF-10A cells; test: Cell Titre Blue viability assay, MCF-10A; format: cell-based, human; conditions: Homo sapiens, 24 hrs, extrapolated with GraphPad, read-out: IC50 cell viability, extrapolated from the dose-response curve
Description: as §1, §2, §4, §3

[4] = Solubility in commonly used solvents and PBS; format: physicochemical
Description: We established that the solubility of Compound 1a in most commonly used solvents is very low (Table 2) which represents an issue for biological evaluation. Therefore a hydrochloric salt of Compound 1a was synthesised and the solubility was analyzed. The obtained salt had improved solubility in water and methanol (Table 2), however it was not soluble (<0.1 g/100 ml) in Phosphate Buffered Saline (PBS). PBS is a water-based salt solution containing sodium chloride, sodium phosphate, potassium chloride and potassium phosphate, while the buffer's phosphate groups help to maintain a constant pH. PBS is non-toxic and is commonly used as an isotonic buffered solution for cell-based assays and animal studies.

[5] = system: SKBR3 cells; test: Cell Titre Blue viability assay, SKBR3; format: cell-based, human; conditions: Homo sapiens, SK-BR-3; SKBR3, 24 hrs, extrapolated with GraphPad; read-out: IC50 cell viability, extrapolated from the dose-response curve
Description: as §1, §2, §4, §3

[6] = Cell Titre Blue viability assay, SKBR3; format: cell-based, human; conditions: human, SKBR3 cells; SKBR3, 1 mM, 24 hrs; read-out: cell viability compared to DMSO control (100%)
Description: as §1, §2, §4, §3

**Q.** Which IC50 [1] does the source give for `O=C(Nc1ccccc1C(=O)NCCN1CCOCC1)c1ccccc1F` [Compound 1a, 2-[(2-fluorobenzoyl)amino]-N-(2-morpholin-4-ylethyl)benzamide] here?
**A.** The IC50 was 2.7 mM.

**Q.** And the viability at 24 h, 1000 µM [2]?
**A.** Its viability at 24 h, 1000 µM is 96%.

**Q.** And the IC50 [3]?
**A.** The IC50 was 14.9 mM.

**Q.** What about the Solubility ([4]; DMSO) of the same compound?
**A.** The Solubility was 3.71 g/100 ml.

**Q.** What about the Solubility ([4]; Dichloromethane) of the same compound?
**A.** Its Solubility is 2.91 g/100 ml.

**Q.** What about the Solubility ([4]; Diethyl ether) of the same compound?
**A.** The Solubility was 0.09 g/100 ml.

**Q.** What about the Solubility ([4]; Ethanol) of the same compound?
**A.** Its Solubility is 0.09 g/100 ml.

**Q.** What about the Solubility ([4]; Ethyl acetate) of the same compound?
**A.** Its Solubility is 0.34 g/100 ml.

**Q.** What about the Solubility ([4]; Methanol) of the same compound?
**A.** Its Solubility is 0.20 g/100 ml.

**Q.** What about the Solubility ([4]; water, read-out: Solubility) of the same compound?
**A.** The Solubility was < 100 µg/mL.

**Q.** And the IC50 [5]?
**A.** The IC50 was 1.37 mM.

**Q.** And the viability at 24 h, 1 mM [6]?
**A.** The viability at 24 h, 1 mM was 57%.
